Reference: BindingDB's records for patent US20250074919 (Accro Bioscience (HK), 2025)

Molecular target: T1, Interleukin-1 receptor-associated kinase 4 (Homo sapiens, UniProt Q9NWZ3)
T1 sequence (Q9NWZ3 whole entry): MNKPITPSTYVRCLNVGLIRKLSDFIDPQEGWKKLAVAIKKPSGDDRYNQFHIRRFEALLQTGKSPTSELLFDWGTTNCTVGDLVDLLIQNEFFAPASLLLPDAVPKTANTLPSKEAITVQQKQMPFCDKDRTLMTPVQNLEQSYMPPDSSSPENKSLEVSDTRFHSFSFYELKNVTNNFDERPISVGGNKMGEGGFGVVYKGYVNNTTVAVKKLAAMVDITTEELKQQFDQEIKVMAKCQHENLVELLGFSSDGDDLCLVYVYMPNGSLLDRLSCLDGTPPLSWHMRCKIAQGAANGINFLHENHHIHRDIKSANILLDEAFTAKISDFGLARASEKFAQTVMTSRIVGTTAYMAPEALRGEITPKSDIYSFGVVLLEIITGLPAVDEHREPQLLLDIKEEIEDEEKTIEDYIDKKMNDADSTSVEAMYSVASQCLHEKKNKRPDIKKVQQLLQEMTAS
Assay: Screening Assay Against IRAK4 with ATP
Description: Then prepare compounds for testing: Dilute the compound to 50× of the final desired highest inhibitor concentration in reaction by 100% DMSO. […] Transfer 10 μL of the compound from the source plate to a new 96-well plate (intermediate plate) and add 90 μL of Ix kinase buffer. Shake the mixture on the intermediate plate for 10 min. Transfer 5 μL of each well from the 96-well intermediate plate to a 384-well plate in duplicates. Add 10 μL of 2.5× enzyme solution to each well of the 384-well assay plate and incubate at room temperature for 10 min. Add 10 μL, of 2.5×FAM-labeled peptide and ATP solution and incubate at 28° C. for a period of time.

IC50: 0.045 µM
Compound: Cn1cc(-c2cccc(NC(=O)c3cc4oc(N5CCOCC5)nc4nc3N3CCOCC3)n2)cn1 [US20250074919, Example A2]
